Source: patent US11298395B2, “Isolates from spent turmeric for the management of rheumatoid arthritis” (SAMI LABS LIMITED, priority 2017, dated 2022)

Test system: Adjuvant induced rheumatoid arthritis in rats
Assay: In vivo anti-arthritic activity: Freund's complete adjuvant induced arthritis in rats
Set-up: species or system Male Wistar rats
Conditions: reference group, dose not given
Description: Male Wistar rats weighing […] were orally dosed with 100, 200 and 400 mg/kg of spent turmeric polysaccharide from day 1-day 28. The animals were given intra-dermal injection of Freund's complete adjuvant in the paw at a dosage level of 0.1 ml on days 7, 15, 21 and 28 of the study to induce arthritis. Oedema induced by the adjuvant was measured as increase in paw volumes on days 7, 15, 21 and 28. At the end of the study, animals were sacrificed and blood and tissue collected for analyzing the inflammatory parameters. The inflammatory parameters studied included, • a. Inflammation in the paws • b. Blood Biochemistry • c. Lipid Per oxidation • d. Reduced Glutathione in serum • e. Superoxide dismutase activity in serum • f. Levels of Acid and Alkaline phosphatase • g. TNF-α levels • h. IL6 levels

CC(=O)Oc1ccccc1C(=O)O [ASA, Acetyl salicylic acid]
ACP (acid phosphatase): 6.71 ± 0.06 IU/ml | ALP (alkaline phosphatase): 104.18 ± 0.94 IU/ml | LIPID PEROXIDATION malondialdehyde formed: 18.19 ± 0.10 nm/g tissue | Platelets: 232 ± 2.65 10^9/L | Red blood corpuscles-RBCs: 4.70 ± 0.04 10^6 Cells /μl | Reduced Glutathione: 595.69 ± 0.64 μg/g tissue | SUPEROXIDE DISMUTASE: 16.39 ± 0.01 g activity in tissue/min | White blood corpuscles-WBCs: 7800.0 ± 85.63 Cells/μl
